Experimental data reported in patent US20060189551A1 (priority 2004, published 2006).

Key:
[1] = target: FKBP12-aspartokinase interaction (Saccharomyces cerevisiae, UniProt P20081)
Protocol: (§1) Transformants from yeast two-hybrid host strain PJ69-4A coexpressing Ga14 DNA-binding domain (BD) fusion proteins from plasmid pGBT9-Fpr1 (BD-Fpr1), pGBT9-AK (BD-AK), or pGBT9-AK(E282D) (BD-AD^E282D) and Ga14 activation domain (AD) fusion proteins from plasmids pGAD424-AK (AD-AK) or pGAD424-AK(E282D) (AD-AK^E212D) were grown in SD medium supplemented with uracil, adenine, methionine, and histidine (YNB) or in the same medium plus 1 g of L-threonine/liter (YNB+Thr) or 10 μg of FK506/mL (YNB+FK506), and induction of the lacZ reporter gene was quantified by assaying beta-galactosidase activity. PJ69-4A cotransformed with vectors pGBT9 (BD) and pGAD424 (AD) was assayed as a control.
(§2) Yeast two-hybrid host strain PJ69-4A was cotransformed with plasmids expressing the Ga14 DNA binding-domain (BD) and Ga14 activation domain (AD) fusion proteins. The transformants were grown in Siluid SD medium supplemented with adenine, uracil, methionine, and histidine or in the same medium with the 1 g of L-threonine/liter or with 10 mg of FK506/liter, and induction of the lacZ reporter gene was measured as beta-galactosidase activity as disclosed in Cardenas et al., EMBO J., 14, 5892-5907. […]

aspartokinase [2] = target: T1, aspartokinase (Saccharomyces cerevisiae, UniProt P10869)
T1 sequence (P10869 1-527): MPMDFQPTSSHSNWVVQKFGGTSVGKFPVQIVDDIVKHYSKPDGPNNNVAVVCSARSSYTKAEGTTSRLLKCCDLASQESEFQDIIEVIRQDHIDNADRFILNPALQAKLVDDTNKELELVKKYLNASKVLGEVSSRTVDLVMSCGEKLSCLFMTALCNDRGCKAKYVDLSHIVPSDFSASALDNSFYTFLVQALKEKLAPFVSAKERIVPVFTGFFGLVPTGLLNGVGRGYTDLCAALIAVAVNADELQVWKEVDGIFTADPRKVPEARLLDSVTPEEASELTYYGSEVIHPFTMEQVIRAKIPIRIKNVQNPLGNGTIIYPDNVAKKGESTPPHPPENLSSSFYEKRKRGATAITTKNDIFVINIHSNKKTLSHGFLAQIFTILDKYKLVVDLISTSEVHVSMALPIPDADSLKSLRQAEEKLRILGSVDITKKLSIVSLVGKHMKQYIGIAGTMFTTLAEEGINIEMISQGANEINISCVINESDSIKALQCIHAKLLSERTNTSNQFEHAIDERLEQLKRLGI
Protocol: (§3) Aspartokinase (AK) activity in partially purified extracts obtained from the strains described in FIG. 8A was assayed in the presence or absence of threonine (1 or 5 mM).
(§4) AK activity was measured with an enzymatic assay that couples ADP formation with NADH depletion, using pyruvate kinase/lactate dehydrogenase system.
(§5) Aspartokinase activity was assayed in the presence and absence of threonine from wild-type and fpr1, hom6 or HOM3-R7 feedback-resistant mutant cells.

aspartokinase [3] = target: aspartokinase (Saccharomyces cerevisiae, UniProt P10869, E282D); details: 5 mM threonine
Chain of aspartokinase (Saccharomyces cerevisiae, UniProt P10869, E282D) (P10869 whole entry E282D): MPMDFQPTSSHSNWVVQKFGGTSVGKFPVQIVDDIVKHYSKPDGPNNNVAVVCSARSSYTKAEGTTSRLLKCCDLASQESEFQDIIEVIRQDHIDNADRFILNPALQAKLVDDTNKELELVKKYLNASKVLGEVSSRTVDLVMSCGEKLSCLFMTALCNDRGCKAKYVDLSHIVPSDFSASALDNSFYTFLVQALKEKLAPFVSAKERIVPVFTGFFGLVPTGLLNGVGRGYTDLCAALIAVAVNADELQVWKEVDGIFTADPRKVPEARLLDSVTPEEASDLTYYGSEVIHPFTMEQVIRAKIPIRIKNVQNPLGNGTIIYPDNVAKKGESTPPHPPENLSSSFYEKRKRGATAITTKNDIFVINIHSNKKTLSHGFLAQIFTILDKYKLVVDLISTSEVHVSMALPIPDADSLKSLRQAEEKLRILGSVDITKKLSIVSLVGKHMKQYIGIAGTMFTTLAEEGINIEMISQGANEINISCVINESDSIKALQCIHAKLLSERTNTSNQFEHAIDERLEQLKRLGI
Protocol: as §3, §4, §5

[4] = test system: FKBP12-aspartokinase interaction; details: 1 g of L-threonine/liter in culture medium (YNB+Thr)
Protocol: as §1, §2

[5] = target: FKBP12-aspartokinase interaction (Saccharomyces cerevisiae, UniProt P10869); details: 30 mM L-threonine added to binding reaction
Chain of FKBP12-aspartokinase interaction (Saccharomyces cerevisiae, UniProt P10869) (P20081 2-114, one chain of several): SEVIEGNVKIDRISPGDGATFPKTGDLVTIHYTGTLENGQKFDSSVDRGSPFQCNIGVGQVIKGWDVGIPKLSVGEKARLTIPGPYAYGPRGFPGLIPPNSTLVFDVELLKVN
Protocol: (§6) FKBP12-aspartokinase (AK) and AK-AK interaction by in vitro affinity chromatography. Crude protein extracts obtained from a wild-type strain (BY4741) or from a strain expressing the HOM3-R7 mutant allele (MAY315) were incubated with His6-tagged yeast FKPB12 coupled to agarose beads in the presence or absence of 30 mM L-threonine. Bound proteins were eluted and analyzed by Western blotting with antibodies against yeast aspartokinase. Binding reactions wit agarose beads alone were included as controls.

[6] = target: FKBP12-aspartokinase interaction (Saccharomyces cerevisiae, UniProt P10869, E282D); details: 30 mM L-threonine added to binding reaction
Chain of FKBP12-aspartokinase interaction (Saccharomyces cerevisiae, UniProt P10869, E282D) (P20081 2-114): as the sequence (P20081 2-114, one chain of several) above
Chain of FKBP12-aspartokinase interaction (Saccharomyces cerevisiae, UniProt P10869, E282D) (P10869 whole entry E282D): as the sequence (P10869 whole entry E282D) above
Protocol: as §6

Chain of FKBP12-aspartokinase interaction (Saccharomyces cerevisiae, UniProt P20081) (P20081 2-114): as the sequence (P20081 2-114, one chain of several) above

SMILES | FKBP12-aspartokinase binding in the presence of FK506 [1] | aspartokinase activity from wild-type and fpr1Δ strains (aspartokinase [2]; 1 mM threonine) | aspartokinase activity (feedback inhibition) (aspartokinase [2]; 5 mM threonine) | aspartokinase activity of the hom6Δ mutant (aspartokinase [2]; threonine 1 or 5 mM) | activity of feedback-resistant aspartokinase (HOM3-R7) (aspartokinase [3]) | FKBP12-AK and FKBP12-AK^E282D binding [4] | FKBP12 interaction with wild-type aspartokinase [5] | FKBP12 interaction with feedback resistant aspartokinase (HOM3-R7) [6]
C=CC[C@@H]1/C=C(\C)C[C@H](C)C[C@H](OC)[C@H]2O[C@@](O)(C(=O)C(=O)N3CCCC[C@H]3C(=O)O[C@H](/C(C)=C/[C@@H]3CC[C@@H](O)[C@H](OC)C3)[C@H](C)[C@@H](O)CC1=O)[C@H](C)C[C@@H]2OC (relative stereo) [FK506, [3S-[3R*[E(1S*,3S*,4S*)],4S*,5R*,8S*,9E,12R*,14R*,15S*,16R*,18S*,19S*,26aR*]]-5,6,8,11,12,13,14,15,16,17,18,19,24,25,26,26a-hexadecahydro-5,19-dihydroxy-3-[2-(4-hydroxy-3-methoxycyclohexyl)-1-methylethenyl]-14,16-dimethoxy-4,10,12,18-tetramethyl-8-(2-propenyl)-15,19-epoxy-3H-pyrido[2,1-c][1,4]oxaazacyclotricosine-1,7,20,21(4H,23H)-tetrone, reference compound] | nearly abolished |  |  |  |  |  |  | 
C[C@@H](O)[C@H](N)C(=O)O [threonine, L-threonine] |  | inhibited to comparable levels | completely feedback inhibited | inhibited | no inhibition | increased | increased | not with feedback resistant aspartokinase
